Here are results for 16 compounds from PubChem BioAssay AID180 (DTP/NCI, 2004).

This assay relates to BDF1 mice, Adenocarcinoma 755 s.c., tumor weight T/C. In words: NCI In Vivo Anticancer Drug Screen. Data for tumor model Adenocarcinoma 755 (subcutaneous) in B6D2F1 (BDF1) mice. As to conditions: endpoint: mean tumor weight, higher = larger tumour. A digest of the protocol:
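In vivo antitumor screen on a transplantable tumor line. Result equals the measure in compound-treated animals divided by the same measure in vehicle controls.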

Where [1] appears, read: dose: 3.12 mg/kg/injection, schedule: Q01DX011 (ip), vehicle: methylcellulose (MC).
Setting [2] is: dose: 6.25 mg/kg/injection, schedule: Q01DX011 (ip), vehicle: methylcellulose (MC).
[3] abbreviates: dose: 12.5 mg/kg/injection, schedule: Q01DX011 (ip), vehicle: methylcellulose (MC).
[4] abbreviates: dose: 25.0 mg/kg/injection, schedule: Q01DX011 (ip), vehicle: methylcellulose (MC).

Where “and” joins values, the source holds several entries; their conditions need not be identical. Identical values can stand only once.

Usually T/C stands for the result in the treated group divided by that in the control group, in per cent.

Consider `CCCn1cnc2c(=S)nc(N)[nH]c21`, for which the T/C was 103 % of control (dose: 0.03 mg/kg/injection, schedule: Q01DX011 (ip), vehicle: methylcellulose (MC)); 82 % of control (dose: 0.06 mg/kg/injection, schedule: Q01DX011 (ip), vehicle: methylcellulose (MC)); 45 % of control (dose: 0.11 mg/kg/injection, schedule: Q01DX011 (ip), vehicle: methylcellulose (MC)); 6 % of control and 7 % of control (dose: 0.22 mg/kg/injection, schedule: Q01DX011 (ip), vehicle: methylcellulose (MC)); 8 % of control (dose: 0.44 mg/kg/injection, schedule: Q01DX011 (ip), vehicle: methylcellulose (MC)); 4 % of control (dose: 0.88 mg/kg/injection, schedule: Q01DX011 (ip), vehicle: methylcellulose (MC)). In addition, where the note is “dose: 1.75 mg/kg/injection, schedule: Q01DX011 (ip), vehicle: methylcellulose (MC)”, the T/C was 4 % of control.

As for `Cn1cnc2c(SCc3ccccc3)ncnc21`, the T/C is 3 % of control (dose: 63.0 mg/kg/injection, schedule: Q01DX011 (ip), vehicle: carboxymethylcellulose (CMC)); 1 % of control (dose: 126.0 mg/kg/injection, schedule: Q01DX011 (ip), vehicle: carboxymethylcellulose (CMC)); 1 % of control (dose: 252.0 mg/kg/injection, schedule: Q01DX011 (ip), vehicle: carboxymethylcellulose (CMC)).

Turning to `CC(=O)OCC(=O)C1(O)CCC2C3CCC4=CC(=O)CCC4(C)C34OC4CC21C` (centres undefined), the T/C (dose: 25.0 mg/kg/injection, schedule: Q01DX011 (sc), vehicle: steriod suspending solution) is 87 % of control; the T/C (dose: 200.0 mg/kg/injection, schedule: Q01DX011 (sc), vehicle: steriod suspending solution) is 44 % of control; the T/C (dose: 450.0 mg/kg/injection, schedule: Q01DX011 (sc), vehicle: steriod suspending solution) was 17 % of control.

`O=C1C=C(c2ccccc2)C(=O)C=C1c1ccccc1`: the T/C was 72 % of control (dose: 12.5 mg/kg/injection, schedule: Q01DX011 (ip), vehicle: other) and 48 % of control (dose: 25.0 mg/kg/injection, schedule: Q01DX011 (ip), vehicle: other).

On to `CCCn1cnc2c(SCc3ccccc3Cl)nc(N)nc21`, for which the T/C is, setting by setting: (dose: 0.78 mg/kg/injection, schedule: Q01DX011 (ip), vehicle: methylcellulose (MC)) 85 % of control; (dose: 1.56 mg/kg/injection, schedule: Q01DX011 (ip), vehicle: methylcellulose (MC)) 72 % of control; (dose: 3.0 mg/kg/injection, schedule: Q01DX011 (ip), vehicle: carboxymethylcellulose (CMC)) 70 % of control; under setting [1], 62 % of control; (dose: 6.0 mg/kg/injection, schedule: Q01DX011 (ip), vehicle: carboxymethylcellulose (CMC)) 47 % of control; under setting [2], 60 % of control. Further, the T/C is 45 % of control (dose: 12.0 mg/kg/injection, schedule: Q01DX011 (ip), vehicle: carboxymethylcellulose (CMC)); 43 % of control under setting [3]; 17 % of control (dose: 24.0 mg/kg/injection, schedule: Q01DX011 (ip), vehicle: carboxymethylcellulose (CMC)); 7 % of control under setting [4]; 4 % of control (dose: 48.0 mg/kg/injection, schedule: Q01DX011 (ip), vehicle: carboxymethylcellulose (CMC)); 2 % of control (dose: 96.0 mg/kg/injection, schedule: Q01DX011 (ip), vehicle: carboxymethylcellulose (CMC)). Further, the T/C (dose: 190.0 mg/kg/injection, schedule: Q01DX011 (ip), vehicle: carboxymethylcellulose (CMC)) is 3 % of control; the T/C (dose: 192.0 mg/kg/injection, schedule: Q01DX011 (ip), vehicle: carboxymethylcellulose (CMC)) is 1 % of control; the T/C (dose: 380.0 mg/kg/injection, schedule: Q01DX011 (ip), vehicle: carboxymethylcellulose (CMC)) is 4 % of control.

In the case of `CCOC(=O)CCCc1ccc(N=NN(C)CC(C)C)cc1`, the T/C reads like this: (dose: 125.0 mg/kg/injection, schedule: Q01DX011 (ip), vehicle: carboxymethylcellulose (CMC)) 47 % of control; (dose: 250.0 mg/kg/injection, schedule: Q01DX011 (ip), vehicle: carboxymethylcellulose (CMC)) 28 % of control.

As for `CC(C)CCn1cnc2c(=S)nc(N)[nH]c21`, the T/C is, setting by setting: (dose: 1.5 mg/kg/injection, schedule: Q01DX011 (ip), vehicle: methylcellulose (MC)) 48 % of control; (dose: 3.1 mg/kg/injection, schedule: Q01DX011 (ip), vehicle: methylcellulose (MC)) 37 % of control; (dose: 6.2 mg/kg/injection, schedule: Q01DX011 (ip), vehicle: methylcellulose (MC)) 14 % of control; under setting [3], 1 % of control and 9 % of control.

Regarding `NC(=O)c1cn(C2OC(CO)C(O)C2O)c2ncnc(N)c12` (centres undefined), the T/C by setting is: (dose: 0.12 mg/kg/injection, schedule: Q01DX011 (ip), vehicle: carboxymethylcellulose (CMC)) 71 % of control; (dose: 0.25 mg/kg/injection, schedule: Q01DX011 (ip), vehicle: carboxymethylcellulose (CMC)) 54 % of control; (dose: 0.5 mg/kg/injection, schedule: Q01DX011 (ip), vehicle: carboxymethylcellulose (CMC)) 51 % of control.

With `O=S(=O)(F)c1ncnc2nc[nH]c12`, the T/C runs as follows: (dose: 3.13 mg/kg/injection, schedule: Q01DX011 (ip), vehicle: methylcellulose (MC)) 75 % of control; under setting [2], 113 % of control; under setting [3], 72 % of control.

Take `O=C(O)C(O)C(F)(F)F` (centres undefined): the T/C reads like this: (dose: 31.0 mg/kg/injection, schedule: Q01DX011 (ip), vehicle: other) 89 % of control; (dose: 62.5 mg/kg/injection, schedule: Q01DX011 (ip), vehicle: other) 82 % of control; (dose: 125.0 mg/kg/injection, schedule: Q01DX011 (ip), vehicle: other) 111 % of control; (dose: 250.0 mg/kg/injection, schedule: Q01DX011 (ip), vehicle: other) 46 % of control.

Turning to `Cn1cnc2c(C(F)(F)F)nc(Cl)nc21`, the T/C was 98 % of control (dose: 30.0 mg/kg/injection, schedule: Q01DX011 (ip), vehicle: saline) and 91 % of control (dose: 60.0 mg/kg/injection, schedule: Q01DX011 (ip), vehicle: saline).

On to `CCC(C)Cn1cnc2c(=O)[nH]c(N)nc21` (centres undefined), for which the T/C (dose: 37.5 mg/kg/injection, schedule: Q01DX011 (ip), vehicle: methylcellulose (MC)) was 75 % of control; the T/C (dose: 75.0 mg/kg/injection, schedule: Q01DX011 (ip), vehicle: methylcellulose (MC)) was 49 % of control; the T/C (dose: 150.0 mg/kg/injection, schedule: Q01DX011 (ip), vehicle: methylcellulose (MC)) is 67 % of control.

In the case of `O=C(O)c1[nH]c(=O)[nH]c(=O)c1F`, the T/C is 53 % of control (dose: 1.5 mg/kg/injection, schedule: Q01DX011 (ip), vehicle: other); 79 % of control (dose: 3.0 mg/kg/injection, schedule: Q01DX011 (ip), vehicle: other); 37 % of control (dose: 6.0 mg/kg/injection, schedule: Q01DX011 (ip), vehicle: other); 10 % of control (dose: 12.0 mg/kg/injection, schedule: Q01DX011 (ip), vehicle: other).

Consider `CCC(c1ccc(O)cc1)C(CC)c1ccc(OC)cc1` (centres undefined), for which the T/C is 57 % of control (dose: 5.0 mg/kg/injection, schedule: Q01DX011 (sc), vehicle: steriod suspending solution); 56 % of control (dose: 10.0 mg/kg/injection, schedule: Q01DX011 (sc), vehicle: steriod suspending solution); 33 % of control (dose: 20.0 mg/kg/injection, schedule: Q01DX011 (sc), vehicle: steriod suspending solution); 33 % of control (dose: 31.0 mg/kg/injection, schedule: Q01DX011 (ip), vehicle: olive oil, sesame oil, peanut oil); 27 % of control (dose: 62.5 mg/kg/injection, schedule: Q01DX011 (ip), vehicle: olive oil, sesame oil, peanut oil); 45 % of control (dose: 125.0 mg/kg/injection, schedule: Q01DX011 (ip), vehicle: olive oil, sesame oil, peanut oil). The T/C (dose: 250.0 mg/kg/injection, schedule: Q01DX011 (ip), vehicle: olive oil, sesame oil, peanut oil) is 33 % of control.

For `CCCCn1cnc2c(SCc3ccncc3)nc(N)nc21`, the T/C was 35 % of control under setting [1]; 106 % of control under setting [2]; 19 % of control under setting [3]; 1 % of control and 13 % of control under setting [4].

For `Cn1c(=O)c2c(nc(N/N=C/c3ccccc3Br)n2C)n(C)c1=O`, the T/C by setting is: (dose: 30.0 mg/kg/injection, schedule: Q01DX011 (ip), vehicle: carboxymethylcellulose (CMC)) 96 % of control; (dose: 120.0 mg/kg/injection, schedule: Q01DX011 (ip), vehicle: carboxymethylcellulose (CMC)) 101 % of control; (dose: 240.0 mg/kg/injection, schedule: Q01DX011 (ip), vehicle: carboxymethylcellulose (CMC)) 89 % of control.
